Results on 45 compounds are retold here after patent US20240228482A1, “COMPOUNDS, COMPOSITIONS AND METHODS OF TREATING CANCER” (HOTSPOT THERAPEUTICS, INC., priority 2021, published 2024).

pIC50: −log10 of the molar value. Bounds are passed on as bounds.

The target of one assay is T1, CBL-B (Homo sapiens, UniProt Q13191).
T1 construct: GST
T1 sequence (Q13191 whole entry): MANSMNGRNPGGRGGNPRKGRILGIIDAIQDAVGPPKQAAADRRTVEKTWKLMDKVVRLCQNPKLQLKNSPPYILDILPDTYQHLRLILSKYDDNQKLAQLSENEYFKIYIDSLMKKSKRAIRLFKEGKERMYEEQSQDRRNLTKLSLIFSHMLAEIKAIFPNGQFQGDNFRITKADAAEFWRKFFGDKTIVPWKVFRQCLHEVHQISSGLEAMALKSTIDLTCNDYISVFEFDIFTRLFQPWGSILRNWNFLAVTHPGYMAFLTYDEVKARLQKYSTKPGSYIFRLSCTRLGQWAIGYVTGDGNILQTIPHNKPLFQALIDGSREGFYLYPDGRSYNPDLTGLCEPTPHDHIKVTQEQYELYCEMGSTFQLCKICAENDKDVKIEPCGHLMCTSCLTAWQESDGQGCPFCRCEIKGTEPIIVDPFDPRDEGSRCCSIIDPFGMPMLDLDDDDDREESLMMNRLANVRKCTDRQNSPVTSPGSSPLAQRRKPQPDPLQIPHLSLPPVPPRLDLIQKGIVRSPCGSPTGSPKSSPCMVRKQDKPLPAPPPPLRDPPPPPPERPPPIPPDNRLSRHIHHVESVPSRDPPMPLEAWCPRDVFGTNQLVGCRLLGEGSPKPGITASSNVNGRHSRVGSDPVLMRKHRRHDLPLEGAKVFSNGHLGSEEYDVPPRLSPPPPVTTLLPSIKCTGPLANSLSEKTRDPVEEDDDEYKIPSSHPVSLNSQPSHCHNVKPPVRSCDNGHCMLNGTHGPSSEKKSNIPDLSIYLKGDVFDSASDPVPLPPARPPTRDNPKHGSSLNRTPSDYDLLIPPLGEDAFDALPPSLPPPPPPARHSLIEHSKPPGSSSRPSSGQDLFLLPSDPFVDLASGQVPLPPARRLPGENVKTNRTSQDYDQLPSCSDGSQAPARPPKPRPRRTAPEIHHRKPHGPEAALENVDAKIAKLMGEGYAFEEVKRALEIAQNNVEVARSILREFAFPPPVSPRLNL
Kind of assay: CBL-B TR-FRET IC50 screening (E1/E2 ubiquitination, Biotin-Ubiquitin, Anti GST-Tb donor / Streptavidin-d2 acceptor). It counts as biochemical. The conditions noted are these: CBL-B 10 nM final; 11-point titration from 100 uM; binned A-F; read-out: CBL-B TR-FRET activity IC50. A general note: TR-FRET usually uses a lanthanide donor and a delayed reading to cut background.
With `C[C@H]1CCCN(Cc2cc(C(F)(F)F)c3cn(-c4cccc([C@@H](c5nccs5)C5CCC5)c4)c(=O)n3c2)C1` (single isomer, unassigned) [Compound 305], the pIC50 was < 5.00. For the compound `C[C@H]1CCCN(Cc2cc(C(F)(F)F)c3cn(-c4cccc([C@H](c5nccs5)C5CCC5)c4)c(=O)n3c2)C1` (single isomer, unassigned) [Compound 306], the pIC50 is < 5.00. The same measure, in the same setting: in the case of `Cn1cnnc1[C@]1(c2cccc(-n3cc4c(C(F)(F)F)cc(CN5CCc6ncsc6C5)cn4c3=O)c2)C[C@H](C)C1` (single isomer, unassigned) [Compound 308] it was > 7.00; in that of `Cn1cnnc1[C@]1(c2cccc(-n3cc4c(C(F)(F)F)cc(CN5CCc6ncsc6C5)cn4c3=O)c2)C[C@@H](C)C1` (single isomer, unassigned) [Compound 309], 6.52 to 7.00. The same measure, in the same setting: then `CO[C@H]1C[C@](c2cccc(-n3cc4c(C(F)(F)F)cc(CN5CCC[C@H](C)C5)cn4c3=O)c2)(c2nncn2C)C1` (single isomer, unassigned) [Compound 319], with > 7.00. On to `COCCn1cc(C)c([C@@H](c2cccc(-n3cc4c(C(F)(F)F)cc(CN5CCC[C@H](C)C5)cn4c3=O)c2)C2CCC2)n1` (single isomer, unassigned) [Compound 335], for which the pIC50 is < 5.00. As for `COCCn1cc(C)c([C@H](c2cccc(-n3cc4c(C(F)(F)F)cc(CN5CCC[C@H](C)C5)cn4c3=O)c2)C2CCC2)n1` (single isomer, unassigned) [Compound 336], the pIC50 was < 5.00. As for `C[C@H]1CCCN(Cc2cc(C(F)(F)F)c3cn(-c4cccc([C@@H](c5nncn5C)C5CC(F)(F)C5)c4)c(=O)n3c2)C1` (single isomer, unassigned) [Compound 342], the pIC50 was < 5.00.

`C[C@H]1CCCN(Cc2cc(C(F)(F)F)c3cn(-c4cccc([C@H](c5nncn5C)C5CC(F)(F)C5)c4)c(=O)n3c2)C1` (single isomer, unassigned) [Compound 343]: the pIC50 was 6.52 to 7.00. Same read-out and setting: in the case of `C[C@H]1CCCN(Cc2cc(C(F)(F)F)c3cn(-c4cccc([C@@H](c5nncn5C)[C@H]5C[C@@H](CO)C5)c4)c(=O)n3c2)C1` (single isomer, unassigned) [Compound 353] it was < 5.00. Regarding `C[C@H]1CCCN(Cc2cc(C(F)(F)F)c3cn(-c4cccc([C@H](c5nncn5C)[C@H]5C[C@H](CO)C5)c4)c(=O)n3c2)C1` (single isomer, unassigned) [Compound 354], the pIC50 was 6.00 to 6.52. Still for that read-out and setting: then `C[C@H]1CCCN(Cc2cc(C(F)(F)F)c3cn(-c4cccc([C@@H](c5nncn5C)[C@H]5C[C@H](CO)C5)c4)c(=O)n3c2)C1` (single isomer, unassigned) [Compound 355], with < 5.00. For the compound `C[C@H]1CCCN(Cc2cc(C(F)(F)F)c3cn(-c4cccc([C@H](c5nncn5C)[C@H]5C[C@@H](CO)C5)c4)c(=O)n3c2)C1` (single isomer, unassigned) [Compound 356], the pIC50 was > 7.00. Turning to `C[C@H]1CCCN(Cc2cc(C(F)(F)F)c3cn(-c4cccc([C@H](c5nncn5C)C5CCOCC5)c4)c(=O)n3c2)C1` (single isomer, unassigned) [Compound 358], the pIC50 was < 5.00. In the case of `C[C@H]1CCCN(Cc2cc(C(F)(F)F)c3cn(-c4cccc([C@@H](c5nncn5C)C5CCOCC5)c4)c(=O)n3c2)C1` (single isomer, unassigned) [Compound 359], the pIC50 is < 5.00. On to `Cc1cn(CCO)nc1[C@@H](c1cccc(-n2cc3c(C(F)(F)F)cc(CN4CCC[C@H](C)C4)cn3c2=O)c1)C1CCC1` (single isomer, unassigned) [Compound 360], for which the pIC50 was < 5.00. Regarding `Cc1cn(CCO)nc1[C@H](c1cccc(-n2cc3c(C(F)(F)F)cc(CN4CCC[C@H](C)C4)cn3c2=O)c1)C1CCC1` (single isomer, unassigned) [Compound 361], the pIC50 is < 5.00. Same read-out and setting: then `COC1(C[C@@H](c2cccc(-n3cc4c(C(F)(F)F)cc(CN5CCC[C@H](C)C5)cn4c3=O)c2)c2nncn2C)CC1` (single isomer, unassigned) [Compound 365], with 5.52 to 6.00. On to `COC1(C[C@H](c2cccc(-n3cc4c(C(F)(F)F)cc(CN5CCC[C@H](C)C5)cn4c3=O)c2)c2nncn2C)CC1` (single isomer, unassigned) [Compound 366], for which the pIC50 is < 5.00. As to `C[C@H]1CCCN(Cc2cc(C(F)(F)F)c3cn(-c4cccc([C@H](c5nncn5C)N5CCC5)c4)c(=O)n3c2)C1` (single isomer, unassigned) [Compound 367], the pIC50 was 5.00 to 5.52. Same read-out and setting: in the case of `C[C@H]1CCCN(Cc2cc(C(F)(F)F)c3cn(-c4cccc([C@@H](c5nncn5C)N5CCC5)c4)c(=O)n3c2)C1` (single isomer, unassigned) [Compound 368] it was > 7.00; in that of `Cc1sc(C#N)nc1[C@@H](c1cccc(-n2cc3c(C(F)(F)F)cc(CN4CCC[C@H](C)C4)cn3c2=O)c1)C1CCC1` (single isomer, unassigned) [Compound 369], < 5.00; in that of `C[C@H]1CCCN(Cc2cc(C(F)(F)F)c3cn(-c4cccc([C@H](c5nc(C#N)cs5)C5CCC5)c4)c(=O)n3c2)C1` (single isomer, unassigned) [Compound 370], < 5.00. As for `Cc1sc(C#N)nc1[C@H](c1cccc(-n2cc3c(C(F)(F)F)cc(CN4CCC[C@H](C)C4)cn3c2=O)c1)C1CCC1` (single isomer, unassigned) [Compound 371], the pIC50 was < 5.00. Regarding `C[C@H]1CCCN(Cc2cc(C(F)(F)F)c3cn(-c4cccc([C@@H](c5nc(C#N)cs5)C5CCC5)c4)c(=O)n3c2)C1` (single isomer, unassigned) [Compound 372], the pIC50 is < 5.00.

The assay is the same for the next values; noted with them: second part of Table 2 (head 'Patent Cmpd No / Updated Activity'); same CBL-B TR-FRET IC50 bins A-F; read-out: Updated Activity.
Take `Cc1cnoc1[C@H](c1cccc(-n2cc3c(C(F)(F)F)cc(CN4CCC[C@H](C)C4)cn3c2=O)c1)C1CCC1` (single isomer, unassigned) [Compound 383]: the pIC50 is < 5.00. On to `Cc1cnoc1[C@@H](c1cccc(-n2cc3c(C(F)(F)F)cc(CN4CCC[C@H](C)C4)cn3c2=O)c1)C1CCC1` (single isomer, unassigned) [Compound 384], for which the pIC50 was < 5.00. On the same count and under the same terms, in the case of `COCc1nc([C@@H](c2cccc(-n3cc4c(C(F)(F)F)cc(CN5CCC[C@H](C)C5)cn4c3=O)c2)C2CCC2)c(C)s1` (single isomer, unassigned) [Compound 385] it was < 5.00. Same read-out and setting: then `COCc1nc([C@H](c2cccc(-n3cc4c(C(F)(F)F)cc(CN5CCC[C@H](C)C5)cn4c3=O)c2)C2CCC2)c(C)s1` (single isomer, unassigned) [Compound 386], with < 5.00; and `COC1CN([C@H](c2cccc(-n3cc4c(C(F)(F)F)cc(CN5CCC[C@H](C)C5)cn4c3=O)c2)c2nncn2C)C1` (single isomer, unassigned) [Compound 387], with < 5.00; and `COC1CN([C@@H](c2cccc(-n3cc4c(C(F)(F)F)cc(CN5CCC[C@H](C)C5)cn4c3=O)c2)c2nncn2C)C1` (single isomer, unassigned) [Compound 388], with < 5.00.

With `COCc1csc([C@@H](c2cccc(-n3cc4c(C(F)(F)F)cc(CN5CCC[C@H](C)C5)cn4c3=O)c2)C2CCC2)n1` (single isomer, unassigned) [Compound 389], the pIC50 was < 5.00. With `COCc1csc([C@H](c2cccc(-n3cc4c(C(F)(F)F)cc(CN5CCC[C@H](C)C5)cn4c3=O)c2)C2CCC2)n1` (single isomer, unassigned) [Compound 390], the pIC50 was < 5.00. Take `Cc1sc(CO)nc1[C@@H](c1cccc(-n2cc3c(C(F)(F)F)cc(CN4CCC[C@H](C)C4)cn3c2=O)c1)C1CCC1` (single isomer, unassigned) [Compound 391]: the pIC50 was < 5.00. On to `Cc1sc(CO)nc1[C@H](c1cccc(-n2cc3c(C(F)(F)F)cc(CN4CCC[C@H](C)C4)cn3c2=O)c1)C1CCC1` (single isomer, unassigned) [Compound 392], for which the pIC50 was < 5.00. Same read-out and setting: then `COC(=O)N1CCC[C@H](c2cc(C(F)(F)F)c3cn(-c4cccc([C@H](c5nncn5C)C5CCC5)c4)c(=O)n3c2)C1` (single isomer, unassigned) [Compound 393], with > 7.00. Same read-out and setting: then `COC(=O)N1CCC[C@@H](c2cc(C(F)(F)F)c3cn(-c4cccc([C@H](c5nncn5C)C5CCC5)c4)c(=O)n3c2)C1` (single isomer, unassigned) [Compound 394], with 6.52 to 7.00; and `CC(=O)N1CCC[C@H](c2cc(C(F)(F)F)c3cn(-c4cccc([C@H](c5nncn5C)C5CCC5)c4)c(=O)n3c2)C1` (single isomer, unassigned) [Compound 396], with 6.52 to 7.00; and `CC(=O)N1CCC[C@@H](c2cc(C(F)(F)F)c3cn(-c4cccc([C@H](c5nncn5C)C5CCC5)c4)c(=O)n3c2)C1` (single isomer, unassigned) [Compound 397], with 6.52 to 7.00.

`COCC[C@H](c1cccc(-n2cc3c(C(F)(F)F)cc(CN4CCC[C@H](C)C4)cn3c2=O)c1)c1nncn1C` (single isomer, unassigned) [Compound 399]: the pIC50 was > 7.00. As to `COCC[C@@H](c1cccc(-n2cc3c(C(F)(F)F)cc(CN4CCC[C@H](C)C4)cn3c2=O)c1)c1nncn1C` (single isomer, unassigned) [Compound 400], the pIC50 is < 5.00. On the same count and under the same terms, in the case of `C[C@H]1CCCN(Cc2cc(C(F)(F)F)c3cn(-c4cccc([C@@H](CC5(C#N)CC5)c5nncn5C)c4)c(=O)n3c2)C1` (single isomer, unassigned) [Compound 405] it was < 5.00; in that of `C[C@H]1CCCN(Cc2cc(C(F)(F)F)c3cn(-c4cccc([C@H](c5nncn5C)N5CC(O)C5)c4)c(=O)n3c2)C1` (single isomer, unassigned) [Compound 406], 6.52 to 7.00; in that of `C[C@H]1CCCN(Cc2cc(C(F)(F)F)c3cn(-c4cccc([C@@H](c5nncn5C)N5CC(O)C5)c4)c(=O)n3c2)C1` (single isomer, unassigned) [Compound 407], < 5.00. Still for that read-out and setting: then `COC(=O)N1CC[C@H](c2cc(C(F)(F)F)c3cn(-c4cccc([C@H](c5nncn5C)C5CCC5)c4)c(=O)n3c2)C1` (single isomer, unassigned) [Compound 408], with > 7.00.
